Here are results for 5 compounds from US20140100222A1, “Beta2-ADRENOCEPTOR AGONIST FOR THE TREATMENT OF COUGH” (BOEHRINGER INGELHEIM INTERNATIONAL GMBH, priority 2012, published 2014).

Data set [1] concerns citric acid induced cough in OVA sensitised guinea pigs. The experiment in a line: Anti-tussive activity: citric acid induced cough in OVA sensitised guinea pigs (whole body plethysmograph). It is filed as in vivo, guinea pig. To be noted: for Number of coughs: 2 h before 15 min citric acid challenge, mean; for Anti-tussive effect (%): summary. As to the method: Animals—Male albino Dunkin-Hartley guinea pigs (350-550 g; Charles River WIGA GmbH, Sulzfeld, Germany) were used. The animals were housed in groups of 6 in solid floor cages and allowed free access to water and standard food. The guinea pigs were kept in rooms maintained at a constant temperature (22° C.±2° C.) and humidity (60%±15%), with a 12 h light cycle. The experiments were approved by the ethical committee Regierungspräsidium Tübingen, Germany.
OVA asthma model—On days 1 and 2, the guinea pigs were immunised by subcutaneous injection of 0.5 ml per animal of a solution of ovalbumin (OVA) (40 μg/ml) and aluminium hydroxide [Al (OH)3]. On day 14, these sensitised guinea pigs were challenged with OVA by exposure to an OVA aerosol (1.25 mg/ml) for 5 minutes, using a Dräger Inhalette® (Dräger Medical AG & Co. KgaA, Lübeck, Germany). 30 minutes prior to the challenge, pyrilamine maleate (2 mg/kg i.p.) was administered to protect the animals against bronchospasm. On day 15, the citric acid challenge was given to induce cough. 2 hours before the challenge, the test compound or vehicle (saline) was delivered by intratracheal (i.t.) administration (0.5 ml/kg) under anaesthesia with isoflurane (Forene®, Abbott GmbH and CO. KG, Wiesbaden, Germany).
Cough recording—Two hours after i.t. application, the citric acid challenge was performed. A whole body plethysmograph manufactured for guinea pigs (Buxco Research Systems, Wilmington, N.C., USA) was used for the experiments. Conscious animals were individually placed, unrestrained, into a whole body plethysmograph chamber. A solution of citric acid (0.4 M) was nebulised using the Aerosol Delivery System (Buxco) and administered to the animals at a rate of nebulisation of 0.18 ml/min for 15 min. During the challenge, airflow in the chamber was recorded by the Buxco system and analysed for the transient increase in airflow produced by cough, in which rapid inspiration is followed by rapid expiration. The system was able to distinguish coughs from other expiratory responses, and the number of coughs was counted.
Data analysis—Data from the treatment groups were compared with the vehicle group. Data are expressed as mean ±SEM of coughs produced by guinea pigs within each group during a 15 minutes citric acid aerosol exposure. Mean values were statistically analyzed by one-way analysis of variance (ANOVA) followed by the Dunnett's Multiple comparisons Test to evaluate significant differences between groups with p<0.05 being considered significant.

Data set [2] has as its system heart rate. The experiment in a line: Side-effects: increase in heart rate after drug instillation. The protocol:
In the following the heart rate is expressed as a percentage of the pre-value (heart beats per minute) preceding the drug administration. The increase in heart rate expressed in percent corresponds to the difference of heart rate between the vehicle group and the treated group recorded 20 minutes after drug instillation.

Data set [3] relates to acetylcholine induced bronchoconstriction in guinea pigs. The data set is described as follows: Bronchoprotection: acetylcholine induced bronchospasm in anaesthetised guinea pigs (Konzett-Rössler). Format: in vivo, guinea pig. To be noted: for Bronchoconstriction (ml overflow): 2 h before acetylcholine 14 μg/kg i.v., mean; for bronchoprotective FED: first dose without side-effect displaying 80 to 100% efficacy. The protocol: Animal-Male and female Dunkin-Harley guinea pigs were obtained from the Experimental Animal Breeding Centre of Harlan Winkelmann (Germany). After fasting overnight, but with free access to drinking water, animals with body weight of 400-500 g are used. Anesthesia and preparation-The anesthesia was induced by intraperitoneal injection of 50 mg/kg pentobarbital. Anesthesia was prolonged by intravenous infusion of pentobarbital (15 mg/kg/h) via the jugular vein. A tracheal cannula was introduced after tracheotomy for artificial ventilation. The internal jugular vein was cannulated for acetylcholine injection. Instrumentation-Bronchospasm was recorded with a modified version of the method of Konzett-Röβler described by […] et al, 1997. […] Lung resistance was measured as ml of overflow and was recorded, amplified and saved under Notocord files (Notocord-hem, Notocord, France). Blood pressure and heart rate were monitored from a carotid artery in order to check the anesthesia and the variability of the preparation. Experimental protocol-2 hours before acetylcholine challenge, guinea pigs were given the test compound or its vehicle intra-tracheally under a slight isoflurane anesthesia. 30 minutes before acetylcholine challenge, lung resistance and blood pressure were measured under anesthesia. […] Data analysis-Data from the treatment groups were compared with the vehicle group. Data are expressed as mean ±SD of ml of overflow. […] Mean values were statistically analyzed by one-way analysis of variance (ANOVA) followed by the Dunnett's Multiple comparisons Test to evaluate significant differences between groups with p<0.05 being considered significant.

Data set [4] relates to cough reflex. To be noted: inhaled therapy in asthma, COPD or IPF; therapeutic doses; cited from earlier work.
The mark [5] stands for this setting: 1 μg/kg i.t., inhibition of acetylcholine bronchoconstriction.
Where [6] appears, read: Dunkin-Hartley, guinea pig, in vivo, 20 min.

Marks after values point to notes of the source that are not given here.

For the compound `COc1ccc2c3c1O[C@H]1[C@@H](O)C=C[C@H]4[C@@H](C2)N(C)CC[C@@]341` [Codeine], the “Inhibition of cough (%) vs vehicle” value in data set [1] (1 mg/kg i.t.) is listed as 17%; in data set [1] (3 mg/kg i.t.), 42 * %; in data set [1] (10 mg/kg i.t.), 58 * %; in data set [1] (30 mg/kg i.t.), 71 * %. Moreover, the Number of coughs in data set [1] (1 mg/kg i.t.) was 20; in data set [1] (3 mg/kg i.t.), 14; in data set [1] (10 mg/kg i.t.) it was 10; in data set [1] (30 mg/kg i.t.), 7.

As to `COc1ccc(CC(C)NCC(O)c2ccc(O)c(NC=O)c2)cc1` (stereo not drawn) [Formoterol], the “increase in heart rate” value in data set [2] (10 μg/kg, 20 min after administration) is 21%. Moreover, in data set [2] (first dose increasing heart rate at least 10% vs vehicle, 20 min after administration), the “Dose inducing side-effect (increase in heart rate)” value worked out at 10 µg/kg. For the same compound, the figures for the “Inhibition of cough (%) vs vehicle” value in data set [1] (1 μg/kg i.t.), in data set [1] (3 μg/kg i.t.) and in data set [1] (10 μg/kg i.t.) were 0%, 71 * % and 58 * %, respectively. In addition, the Number of coughs in data set [1] (1 μg/kg i.t.) is 26; in data set [1] (3 μg/kg i.t.), 7; in data set [1] (10 μg/kg i.t.) it was 10. For the same compound, the “Anti-tussive effect (%)” value in data set [1] (3 μg/kg) came out at 71%; in data set [1] (10 μg/kg), 58%.

A word on the ED50: it is the dose that gives a 50% effect, or the effect in half of the subjects. A high value points to weaker potency. For `CCc1cc2c(cc1CC)CC(NC[C@H](O)c1ccc(O)c3[nH]c(=O)ccc13)C2` [Indacaterol], the “Bronchoconstriction (ml overflow)” value in data set [3] (1 μg/kg i.t.) amounted to 34 mL; in data set [3] (3 μg/kg i.t.) it was 18 mL; in data set [3] (10 μg/kg i.t.), 6 mL; in data set [3] (30 μg/kg i.t.) it was 5 mL. Also, the “Bronchoprotection (%)” value is listed as 8% in data set [3] (setting [5]); 51 * % in data set [3] (3 μg/kg i.t., inhibition of acetylcholine bronchoconstriction); 84 * % in data set [3] (10 μg/kg i.t., inhibition of acetylcholine bronchoconstriction); 86 * % in data set [3] (30 μg/kg i.t., inhibition of acetylcholine bronchoconstriction); 8% in data set [3] (summary, 1 μg/kg); 51% in data set [3] (summary, 3 μg/kg). For the same compound, the “Bronchoprotection (%)” value in data set [3] (summary, 10 μg/kg) was found to be 84%; in data set [3] (summary, 30 μg/kg), 86%. The compound also registered a 50% effective dose (ED50) in data set [3] (Cavia porcellus, inhaled or nasal, i.t.) of 3 µg/kg. Moreover, the “bronchoprotective FED” value in data set [3] was 10 µg/kg. The “Dose inducing side-effect (increase in heart rate)” value in data set [2] (setting [6]) amounted to 100 µg/kg. Further, the “ratio dose inducing side-effect/bronchoprotective FED” value in data set [2] (guinea pig, in vivo, 20 min) is reported as 10. Moreover, the “safety margin, times less than for Olodaterol” value in data set [2] (guinea pig, in vivo, 20 min) is 10. For the same compound, the “Inhibition of cough (%) vs vehicle” value in data set [1] (3 μg/kg i.t.), in data set [1] (10 μg/kg i.t.) and in data set [1] (30 μg/kg i.t.) was 0% each time. Also, the Number of coughs in data set [1] (3 μg/kg i.t.) is recorded as 26; in data set [1] (10 μg/kg i.t.) it was 32; in data set [1] (30 μg/kg i.t.), 38. For the same compound, the “Anti-tussive effect (%)” value in data set [1] (3 μg/kg), in data set [1] (10 μg/kg) and in data set [1] (30 μg/kg) was 0% each time.

With `COc1ccc(CC(C)(C)NC[C@H](O)c2cc(O)cc3c2OCC(=O)N3)cc1` [Olodaterol], the “Bronchoconstriction (ml overflow)” value turned out to be 25 mL in data set [3] (0.01 μg/kg i.t.); 14 mL in data set [3] (0.03 μg/kg i.t.); 8 mL in data set [3] (0.1 μg/kg i.t.); 4 mL in data set [3] (0.3 μg/kg i.t.); 2 mL in data set [3] (1 μg/kg i.t.). Besides, the “Bronchoprotection (%)” value in data set [3] (0.01 μg/kg i.t., inhibition of acetylcholine bronchoconstriction) is 32%; in data set [3] (0.03 μg/kg i.t., inhibition of acetylcholine bronchoconstriction) it was 62 * %; in data set [3] (0.1 μg/kg i.t., inhibition of acetylcholine bronchoconstriction), 78 * %; in data set [3] (0.3 μg/kg i.t., inhibition of acetylcholine bronchoconstriction), 89 * %; in data set [3] (setting [5]), 95 * %; in data set [3] (summary, 0.01 μg/kg), 32%. Besides, the “Bronchoprotection (%)” value in data set [3] (summary, 0.03 μg/kg) is given as 62%; in data set [3] (summary, 0.1 μg/kg), 78%; in data set [3] (summary, 0.3 μg/kg) it was 89%; in data set [3] (summary, 1 μg/kg) it was 95%. Besides, the “bronchoprotective FED” value in data set [3] was found to be 0.3 µg/kg. For the same compound, in data set [3] (i.t.), the “minimum effective dose for bronchoprotection” value amounted to 0.01 µg/kg. For the same compound, in data set [2] (setting [6]), the “Dose inducing side-effect (increase in heart rate)” value came out at 30 µg/kg. The “ratio dose inducing side-effect/antitussive FED” value in data set [2] (setting [6]) is given as 300. In addition, the “ratio dose inducing side-effect/bronchoprotective FED” value in data set [2] (setting [6]) was 100. Moreover, the addiction or arrhythmia result in data set [2] (in vivo) was “no addiction or arrhythmia”. For the same compound, the “Inhibition of cough (%) vs vehicle” value is 33% in data set [1] (0.01 μg/kg i.t.); 58 * % in data set [1] (0.03 μg/kg i.t.); 79 * % in data set [1] (0.1 μg/kg i.t.); 79 * % in data set [1] (0.3 μg/kg i.t.); 75 * % in data set [1] (1 μg/kg i.t.); 79 * % in data set [1] (3 μg/kg i.t.). Moreover, the Number of coughs was 16 in data set [1] (0.01 μg/kg i.t.); 10 in data set [1] (0.03 μg/kg i.t.); 5 in data set [1] (0.1 μg/kg i.t.); 5 in data set [1] (0.3 μg/kg i.t.); 6 in data set [1] (1 μg/kg i.t.); 5 in data set [1] (3 μg/kg i.t.). For the same compound, the “antitussive Fully Effective Dose (FED)” value in data set [1] (first dose without side-effect displaying 70 to 80% efficacy) was determined as 0.1 µg/kg. In addition, the “Anti-tussive effect (%)” value is 33% in data set [1] (0.01 μg/kg); 58% in data set [1] (0.03 μg/kg); 79% in data set [1] (0.1 μg/kg); 79% in data set [1] (0.3 μg/kg); 75% in data set [1] (1 μg/kg).

On to `OCc1cc(C(O)CNCCCCCCOCCCCc2ccccc2)ccc1O` (stereo not drawn) [Salmeterol], for which, in data set [4], the “effect on cough reflex” value is recorded as “display anti-tussive effect”.
